Data published in ChEMBL document CHEMBL3046114, “Synthesis and phytotoxic activity of novel acylthiourea and 2H-1,2,4-thiadiazolo[2,3-]pyrimidine derivatives” (2012).

What was measured:
Type in all cases: functional
Settings in all cases: read-out: GI
Brassica napus [1] = experiment: Phytotoxicity against Brassica napus (oilseed rape) germinated seed assessed as growth inhibition at 10 mg/L after 72 hr by culture dish method
Echinochloa crus-galli [2] = experiment: Phytotoxicity against Echinochloa crus-galli (barnyard grass) germinated seed assessed as growth inhibition at 100 mg/L after 72 hr by culture dish method
Brassica napus [3] = experiment: Phytotoxicity against Brassica napus (oilseed rape) germinated seed assessed as growth inhibition at 100 mg/L after 72 hr by culture dish method
Digitaria ciliaris [4] = experiment: Phytotoxicity against Digitaria ciliaris germinated seed assessed as growth inhibition at 100 mg/L after 72 hr by culture dish method
Chenopodium ficifolium [5] = experiment: Phytotoxicity against Chenopodium ficifolium germinated seed assessed as growth inhibition at 10 mg/L after 72 hr by culture dish method
Chenopodium ficifolium [6] = experiment: Phytotoxicity against Chenopodium ficifolium germinated seed assessed as growth inhibition at 100 mg/L after 72 hr by culture dish method
Echinochloa crus-galli [7] = experiment: Phytotoxicity against Echinochloa crus-galli (barnyard grass) germinated seed assessed as growth inhibition at 10 mg/L after 72 hr by culture dish method
Digitaria ciliaris [8] = experiment: Phytotoxicity against Digitaria ciliaris germinated seed assessed as growth inhibition at 10 mg/L after 72 hr by culture dish method

SMILES	inhibition of growth at 10 µg/mL (Brassica napus [1])	inhibition of growth at 100 µg/mL (Echinochloa crus-galli [2])	inhibition of growth at 100 µg/mL (Brassica napus [3])	inhibition of growth at 100 µg/mL (Digitaria ciliaris [4])	inhibition of growth at 10 µg/mL (Chenopodium ficifolium [5])	inhibition of growth at 100 µg/mL (Chenopodium ficifolium [6])	inhibition of growth at 10 µg/mL (Echinochloa crus-galli [7])	inhibition of growth at 10 µg/mL (Digitaria ciliaris [8])
CSc1cc(C)nc(NC(=S)NC(=O)c2c(-c3ccc(Cl)cc3Cl)noc2C)n1	42.4%	47.1%	73.6%	45.5%	32.8%	86.1%	27.4%	26.7%
CSc1cc(C)nc2n/c(=N/C(=O)c3c(-c4ccc(Cl)cc4Cl)noc3C)sn12	32.8%	75.4%	62.8%	70.6%	21.9%	75.2%	37.5%	26.8%
COc1cc(C)nc2n/c(=N/C(=O)c3c(-c4ccc(Cl)cc4Cl)noc3C)sn12	26.4%	80.5%	80.6%	80.6%	45.7%	80.4%	30.9%	50.3%
COc1cc(OC)n2s/c(=N\C(=O)c3c(-c4ccc(Cl)cc4Cl)noc3C)nc2n1	49.3%	85.6%	85.6%	85.3%	28.9%	82.7%	43.2%	53.8%
COc1cc(C)nc(NC(=S)NC(=O)c2c(-c3ccc(Cl)cc3Cl)noc2C)n1	15.7%	61.8%	69.3%	60.2%	15.3%	59.8%	12.3%	30.2%
COc1cc(Cl)nc2n/c(=N/C(=O)c3c(-c4ccc(Cl)cc4Cl)noc3C)sn12	28.6%	40.8%	70.8%	72.8%	19.3%	65.9%	10.8%	16.5%
Cc1cc(C)n2s/c(=N\C(=O)c3c(-c4ccc(Cl)cc4Cl)noc3C)nc2n1	46.3%	76%	76.8%	84.9%	26.7%	76.9%	25.2%	15.2%
Cc1cc(Cl)nc(NC(=S)NC(=O)c2c(-c3ccc(Cl)cc3Cl)noc2C)n1	8.36%	48.7%	50.8%	44.2%	28.9%	48.3%	-6.84%	10.2%
